Assays:
[1] = molecular target: A-Raf kinase (SEQ. ID No: 1) (Homo sapiens (Human), UniProt P10398, Y301D/Y302D); test: Biochemical Assay for A-Raf (1); conditions: Table J, assay version (1); read-out: ARAF (1) IC50
In short: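 IC50 values were derived by four-parameter sigmoidal fitting of percent inhibition, calculated from reaction rates over the 4–5 h window. Absorbance at 340 nm was tracked for 6 h at 30 °C via coupled PK/LDH NADH depletion. Conditions: 1 mM ATP, 30.1 nM MEK substrate, 5.55 nM A-Raf (Y301D/Y302D), Tris pH 7.5, 1% DMSO.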

A375 cells = test: A375 Cell Proliferation Assay (1); type: cell-based; conditions: Homo sapiens, A-375
In short: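 Resazurin fluorescence (excitation 540 nm, emission 600 nm, after a further 5-6 h) gave IC50s from triplicate compound dilution series.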

WM3928 cells = test: WM3928 Cell Proliferation Assay (1); type: cell-based
In short: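 IC50 was derived from resazurin fluorescence (ex 540, em 600 nm) after a 6–7 h dye incubation. Before that, cells had 67–72 h of compound exposure at 37 °C, 5% CO2.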

Miapaca-2 cells = test: MiaPaca-2 Cell Proliferation Assay (1); type: cell-based; conditions: Homo sapiens, MIA PaCa-2, single agent, read-out: MiaPaca2 (1) IC50
In short: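 Resazurin was added after compound exposure and incubated 5-6 h, then fluorescence read at 540 nm excitation and 600 nm emission to give IC50.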

Sequence of A-Raf kinase (SEQ. ID No: 1) (P10398 other isoform, or with tags, fused parts or gaps Y301D (already in the parent)/Y302D (already in the parent)): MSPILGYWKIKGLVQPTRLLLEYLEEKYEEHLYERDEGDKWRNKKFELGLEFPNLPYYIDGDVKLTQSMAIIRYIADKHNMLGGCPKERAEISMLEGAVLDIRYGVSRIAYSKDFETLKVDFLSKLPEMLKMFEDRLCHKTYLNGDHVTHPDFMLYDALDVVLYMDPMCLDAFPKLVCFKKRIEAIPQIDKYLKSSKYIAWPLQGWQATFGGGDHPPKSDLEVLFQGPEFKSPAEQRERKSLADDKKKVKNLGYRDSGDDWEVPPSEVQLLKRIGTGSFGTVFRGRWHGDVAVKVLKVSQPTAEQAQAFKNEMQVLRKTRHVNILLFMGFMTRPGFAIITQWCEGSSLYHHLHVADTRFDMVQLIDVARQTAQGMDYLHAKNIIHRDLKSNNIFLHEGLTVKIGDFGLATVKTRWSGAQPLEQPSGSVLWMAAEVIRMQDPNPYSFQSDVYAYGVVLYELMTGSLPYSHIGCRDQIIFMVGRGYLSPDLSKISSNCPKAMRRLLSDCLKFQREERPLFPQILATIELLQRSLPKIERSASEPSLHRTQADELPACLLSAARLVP

SMILES | IC50 [1] [µM] | IC50 (A375 cells) [µM] | IC50 (WM3928 cells) [µM] | IC50 (Miapaca-2 cells) [µM]
CNC(=O)c1cc(-c2cncc(-c3cc(NC(=O)c4ccnc(C(C)(C)C#N)c4)ccc3C)c2)ncn1 [Example 235] | 1 to 10 | ≤ 0.1 | ≤ 0.1 | 1 to 10
Cc1ccc(NC(=O)c2ccnc(C(C)(C)C#N)c2)cc1-c1cccc(-c2cc(NC(=O)C3(F)CC3)ncn2)c1 [Example 200] | 1 to 10 | ≤ 0.1 | ≤ 0.1 | 1 to 10
Cc1ccc(NC(=O)c2ccnc(C3(C#N)CC3)c2)cc1-c1cccc(-c2cc(NC(=O)C3CC3)ncn2)n1 [Example 220] | 1 to 10 | 1 to 10 | 1 to 10 | 1 to 10
Cc1ccc(NC(=O)c2ccnc(C(C)(C)C#N)c2)cc1-c1cc(-c2cc(NC(=O)C3CC3)ncn2)cc(C2CC2)c1 [Example 216] | 1 to 10 | ≤ 0.1 | ≤ 0.1 | 1 to 10
Cc1cc(F)c(NC(=O)c2cnnc(C3CC3)c2)cc1-c1nccc(-c2ccnc(NC(=O)C3CC3)c2)n1 [Example 252] | 1 to 10 | 1 to 10 | 0.5 to 1 | 1 to 10
Cc1cc(-c2cc(NC(=O)C3CC3)ncn2)cc(-c2cc(NC(=O)c3ccnc(C(C)(C)C#N)c3)ccc2C)c1 [Example 212] | 1 to 10 | ≤ 0.1 | – | 1 to 10
CNC(=O)c1cc(-c2cccc(-c3cc(NC(=O)c4ccnc(C(C)(C)C#N)c4)ccc3C)c2)cnn1 [Example 191] | 1 to 10 | ≤ 0.1 | ≤ 0.1 | –
Cc1ncc(NC(=O)c2ccnc(C3CC3)c2)cc1-c1ccnc(-c2ccnc(NC(=O)C3CC3)c2)n1 [Example 277] | 1 to 10 | 0.5 to 1 | 0.1 to 0.5 | –
Cc1ncc(NC(=O)c2ccnc(C3CC3)c2)cc1-c1ccnc(-c2ccnc(NC(=O)C3CC3)c2)c1 [Example 253] | 1 to 10 | 0.1 to 0.5 | ≤ 0.1 | 1 to 10
Cc1ccc(NC(=O)c2ccnc(C3(C#N)CC3)c2)cc1-c1cccc(-c2cc(NC(=O)C3CC3)ncn2)c1 [Example 203] | 1 to 10 | ≤ 0.1 | ≤ 0.1 | 1 to 10
Cc1ncc(NC(=O)c2ccnc(C3CC3)c2)cc1-c1cccc(-c2ccnc(NC(=O)C3CC3)c2)n1 [Example 270] | 1 to 10 | 0.1 to 0.5 | 0.1 to 0.5 | 1 to 10
CNC(=O)c1cc(-c2nccc(-c3cc(NC(=O)c4ccnc(C(C)(C)C#N)c4)cnc3C)n2)ccn1 [Example 194] | 1 to 10 | 0.5 to 1 | 0.1 to 0.5 | 1 to 10
CNC(=O)c1cc(-c2cccc(-c3cc(NC(=O)c4ccnc(C(C)(C)C#N)c4)cnc3C)c2)cnn1 [Example 201] | 1 to 10 | 0.1 to 0.5 | 0.1 to 0.5 | –
Cc1ccc(NC(=O)c2ccnc(C(C)(C)C#N)c2)cc1-c1cccc(-c2ccnc(NC(=O)C3CC3)c2)c1 [Example 223] | 0.5 to 1 | ≤ 0.1 | ≤ 0.1 | –
Cc1ccc(NC(=O)c2ccnc(C3CC3)c2)cc1-c1cccc(-c2cc(NC(=O)C3CC3)ncn2)c1 [Example 255] | 1 to 10 | ≤ 0.1 | ≤ 0.1 | –
Cc1ccc(NC(=O)c2ccnc(C(F)(F)F)c2)cc1-c1ccnc(-c2ccnc3c2CC(=O)N3)c1 [Example 18] | 1 to 10 | 1 to 10 | – | 1 to 10
CCOc1cc(-c2cc(NC(=O)c3ccnc(C(F)(F)F)c3)ccc2C)cc(-c2ccnc(NC(=O)C3CC3)c2)n1 [Example 12] | 1 to 10 | 0.1 to 0.5 | – | 1 to 10
Cc1ccc(NC(=O)c2cc(CN(C)C)cc(C(F)(F)F)c2)cc1-c1cncc(-c2ccnc(NC(=O)C3CC3)c2)n1 [Example 185] | 0.1 to 0.5 | ≤ 0.1 | ≤ 0.1 | –
CNC(=O)c1cc(-c2nc(-c3cc(NC(=O)c4ccnc(C(C)(C)C#N)c4)ccc3C)cc(C3CC3)n2)ccn1 [Example 196] | 1 to 10 | ≤ 0.1 | 0.1 to 0.5 | –
Cc1ccc(NC(=O)c2ccnc(C(F)(F)F)c2)cc1-c1ccnc(-c2ccnc(NC(=O)CN(C)C)c2)c1 [Example 17] | 1 to 10 | 0.1 to 0.5 | – | 1 to 10

SMILES | IC50 [1] [µM] | IC50 (A375 cells) [µM] | IC50 (WM3928 cells) [µM] | IC50 (Miapaca-2 cells) [µM]
CCNC(=O)c1cc(-c2cc(-c3cc(NC(=O)c4ccnc(C(C)(C)C#N)c4)ccc3C)ccn2)ccn1 [Example 266] | 1 to 10 | 0.1 to 0.5 | – | –
Cc1ncc(NC(=O)c2ccnc(C(C)(C)C#N)c2)cc1-c1cccc(-c2cc(NC(=O)C(C)(C)C)ncn2)c1 [Example 213] | 1 to 10 | – | 0.1 to 0.5 | 1 to 10
CNC(=O)c1cc(-c2cc(-c3cc(NC(=O)c4ccnc(C(C)(C)C#N)c4)ccc3F)ccn2)ccn1 [Example 205] | 1 to 10 | 0.1 to 0.5 | 0.1 to 0.5 | –
Cc1ncc(NC(=O)c2ccnc(C(C)C)c2)cc1-c1cccc(-c2ccnc(NC(=O)C3CC3)c2)n1 [Example 269] | 1 to 10 | ≤ 0.1 | – | –
Cc1cc(F)c(NC(=O)c2ccnc(C(C)(C)F)c2)cc1-c1cncc(-c2ccnc(NC(=O)C3CC3)c2)n1 [Example 276] | 0.1 to 0.5 | ≤ 0.1 | – | –
CC(=O)Nc1cc(-c2cc(-c3cc(NC(=O)c4ccnc(C(C)(C)C#N)c4)ccc3C)ccn2)ccn1 [Example 19] | 0.5 to 1 | ≤ 0.1 | – | 0.1 to 0.5
CNC(=O)c1cc(-c2cc(-c3cc(NC(=O)c4ccnc(C(C)(C)C#N)c4)ccc3C#N)ccn2)ccn1 [Example 247] | 1 to 10 | 1 to 10 | – | –
Cc1cc(-c2cc(NC(=O)c3ccnc(C(F)(F)F)c3)ccc2C)cc(-c2ccnc3c2CC(=O)N3)n1 [Example 20] | 1 to 10 | 1 to 10 | – | 1 to 10
CC(=O)Nc1cc(-c2cc(-c3cc(NC(=O)c4ccnc(C(F)(F)F)c4)ccc3C)cc(N3CCOCC3)n2)ccn1 [Example 15] | 1 to 10 | ≤ 0.1 | – | 1 to 10
CNC(=O)c1cc(-c2ccnc(-c3cc(NC(=O)c4ccnc(C(C)(C)F)c4)ccc3C)n2)ccn1 [Example 246] | 1 to 10 | 0.1 to 0.5 | – | –
Cc1ccc(NC(=O)c2ccnc(C(F)(F)F)c2)cc1-c1cc(-c2ccnc(NC(=O)C3CC3)c2)n(C)c(=O)c1 [Example 13] | 1 to 10 | 1 to 10 | – | 1 to 10
CNC(=O)c1cc(-c2cc(-c3cc(NC(=O)c4ccnc(C(C)(C)C#N)c4)ccc3F)cc(C)n2)ccn1 [Example 259] | 1 to 10 | 0.5 to 1 | – | –
Cc1ncc(NC(=O)c2ccnc(C(C)(C)C#N)c2)cc1-c1cccc(-c2cc(N)ncn2)c1 [Example 207] | 1 to 10 | 1 to 10 | – | –
CNC(=O)c1cc(-c2ccnc(-c3cc(NC(=O)c4ccnc(C(C)(C)OC)c4)ccc3C)n2)ccn1 [Example 268] | 1 to 10 | 0.1 to 0.5 | – | –
CNC(=O)c1cc(-c2ccnc(-c3cc(NC(=O)c4ccnc(C(C)(C)C#N)c4)cnc3C)n2)ccn1 [Example 199] | 1 to 10 | 1 to 10 | 1 to 10 | –
CNC(=O)c1cc(-c2ccnc(-c3cc(NC(=O)c4ccnc(C(C)(C)C#N)c4)c(F)cc3C)n2)ccn1 [Example 242] | 1 to 10 | 0.5 to 1 | 0.1 to 0.5 | –
CC(C)(C#N)c1cc(C(=O)Nc2ccc(C#N)c(-c3cccc(-c4cc(NC(=O)C5CC5)ncn4)c3)c2)ccn1 [Example 240] | 1 to 10 | 0.1 to 0.5 | – | –
COC(C)(C)C(=O)Nc1cc(-c2cc(-c3cc(NC(=O)c4ccnc(C(C)(C)C#N)c4)ccc3C)ccn2)ccn1 [Example 237] | 1 to 10 | 1 to 10 | – | –
CC(=O)Nc1cc(-c2cc(-c3cc(NC(=O)c4ccnc(C(F)(F)F)c4)ccc3C)cc(C3CC3)n2)ccn1 [Example 14] | 1 to 10 | ≤ 0.1 | – | 1 to 10

Source: patent publication US12319655B2, “RAF kinase inhibitors and methods of use thereof” (Deciphera Pharmaceuticals, LLC, priority 2021, dated 2025)
